These results are taken from publication PMC11511194, “Key Factors for Improving Predictive Accuracy and Avoiding Overparameterization of the PBPK Absorption Model in Food Effect Studies of Weakly Basic Water-Insoluble Compounds in Immediate Release Formulations” (Pharmaceutics, 2024).

Each structure is given as a SMILES string. Converted amounts (≈) assume the structure as drawn. Like-named read-outs stand apart in the source and are kept apart here.

Data set [1] in a line: Two-stage biorelevant dissolution (transfer test FaSSGF to FaSSIF). Format: physicochemical. The note with it: formulation, gastric to intestinal chamber in vitro. Here is the method:
Because the solubility of weakly basic water-insoluble compounds is higher in the acidic gastric environment compared to the near-neutral intestinal environment, and that bile salts can enhance the solubility of poorly soluble drugs in the intestine, a two-stage dissolution test was performed to explore the drug transfer process from the stomach to the intestine. The transfer apparatus comprised two USP 2 vessels representing the gastric and intestinal chambers, which are interconnected via a peristaltic pump to simulate first-order gastric emptying dynamics. […] Additional samples in the two-stage dissolution test were analyzed every minute with the same instrument. […]
Precipitation parameters, such as critical supersaturation ratio (CSC) and precipitation rate constant (PRC), were evaluated when precipitation occurs in the neutral intestinal environment after the mixture of solution and undissolved substance is transferred from the gastric chamber in vitro. These parameters were evaluated by fitting the two-stage dissolution profile according to the crystallization kinetics equations [28, 29, 30]. […] The calibrated permeability of drugs, as determined using the Caco-2 Transwell model, was used to represent the permeability of drugs in vivo [31]. […]

The test system of data set [2] is Caco-2. Particulars: Apical pH : Basolateral pH 7.4 : 7.4, Passive&Active, cited from earlier work.
The conditions of data set [3]: cited from earlier work.
A short description of data set [4]: physchem. The note with it: for User log K m:w, ion / User log K m:w, neutral: bile micelle to buffer partition, Evaluated by SIVA software. The procedure:
In this manuscript, PBPK absorption models were developed using SimCYP software (version 20, Sheffield, UK, Certara Company), while the primary solubility parameters were evaluated utilizing SIVA software (version 4, Sheffield, UK, Certara Company). The comprehensive process of parameter evaluation is as follows: Intrinsic solubility (So) and salt limiting solubility factor (SF) values were obtained according to the solubility of the API in different aqueous media and the Henderson–Hasselbalch equation (Equation (1)). Subsequently, the bile micelle to buffer partition coefficients (Km:w) in both ionized (Km:w, ionized) and un-ionized (Km:w, un-ionized) states were evaluated based on the solubility of the APIs in FaSSGF, FaSSIF, and FeSSIF media, employing Equation (1). (1) STot=So×Soscalart×1+BSt/CH2O×Km:w, un-ionized+Sit×1+BSt/CH2O×Km:w, ionized+Sbound,excipt where t is the time; STot is the total solubility of the drug in a given medium (aqueous or biorelevant medium); So is the intrinsic solubility of the drug; Soscalar is the scalar for So used to capture the increased solubility of the drug in a given medium; Si is the ionized aqueous solubility; [BS] is the bile salt concentration in a given biorelevant medium; CH2O is the concentration of water; Km:w, ionized/un-ionized are the bile micelle/buffer partition coefficients for ionized and un-ionized species, respectively; and Sbound, excip is the amount of drug bound to the excipient at a given excipient concentration.

Data set [5] is described as follows: Particle size distribution of the APIs (laser diffraction, dry method). The class given is physicochemical. Particulars: API bulk drug. The procedure:
The particle size of the API directly influences the dissolution rate of formulations and the overall bioavailability of the compound, making it a necessary parameter for establishing the PBPK absorption model. To determine the particle size distributions of the APIs employed in the formulation of rivaroxaban, ticagrelor, and PB-201, the bulk drugs used in the corresponding formulations were measured by the dry method with a Malvern Mastersizer laser diffraction size analyzer (Master 2000, Malvern Instruments Limited, Malvern, UK). Each sample was tested once.

`O=C(NC[C@H]1CN(c2ccc(N3CCOCC3=O)cc2)C(=O)O1)c1ccc(Cl)s1` [Rivaroxaban]: the “behaviour after transfer from FaSSGF to FaSSIF” value in data set [1] is given as “continued to dissolve”. In data set [2] (supplement ref 4), the Caco-2 permeability was 8.103 10-6cm/s. Also, in data set [3] (rivaroxaban, supplement ref 2), the “Fraction unbound in plasma” value is listed as 0.065. Also, the Blood-to-plasma partition ratio in data set [3] (rivaroxaban, supplement ref 7) is reported as 0.714. For the same compound, the concentration in solution in data set [4] (aqueous buffer) (solubility) came to 5 µg/mL (≈ 11.5 µM). For the same compound, in data set [4], the “User log K m:w, ion” value is 3.894 and the “User log K m:w, neutral” value is given as 3.330. In addition, in data set [5], the “D (0.1)” value was 3.809 μm, the “D (0.5)” value is listed as 7.955 μm and the “D (0.9)” value was found to be 15.532 μm.
`CCCSc1nc(N[C@@H]2C[C@H]2c2ccc(F)c(F)c2)c2nnn([C@@H]3C[C@H](OCCO)[C@@H](O)[C@H]3O)c2n1` [Ticagrelor]: in data set [1], the “behaviour after transfer from FaSSGF to FaSSIF” value is given as “continued to dissolve”. Moreover, the Caco-2 permeability in data set [2] (supplement ref 19) was 6.0 10-6cm/s. In data set [3] (ticagrelor, supplement ref 18), the Blood-to-plasma partition ratio is 0.592 and the “Fraction unbound in plasma” value is recorded as 0.006. Besides, in data set [4], the “User log K m:w, ion” value is given as 8.226 and the “User log K m:w, neutral” value stood at 5.941. Moreover, in data set [5], the “D (0.1)” value is listed as 3.045 μm, the “D (0.5)” value is 6.926 μm and the “D (0.9)” value came out at 13.605 μm.

By solubility is commonly meant how much of the substance goes into solution per volume.
